# System: panel of 552 cancer cell lines
# Experiment: Growth inhibition (ATPLite) of ATR inhibitor in combination with cisplatin or gemcitabine; synergy score from AUC difference
# Format: cell-based
# Conditions: 96 hours; for synergy when combined with cisplatin: in combination with cisplatin; for synergy when combined with gemcitabine: in combination with gemcitabine
# Method: Cell Culture Methods. Cells were removed from liquid nitrogen storage, thawed and expanded in appropriate growth media. Once expanded, cells were seeded in 384-well tissue culture treated plates at 500 cells per well. […] At the end of either 0 hours or 96 hours, cell status was analyzed using ATPLite (adenosine triphosphate monitoring system; Perkin Elmer) to assess the biological response of cells to drug combinations.
# In this study, growth inhibition (GI) was used as the primary endpoint. ATP monitoring was performed using ATPLite, which allows for the monitoring of cytocidal, cytostatic and proliferative effects of drugs on cells.
# Data Analysis to Assess Synergy of Combination Treatments. […] Synergy was evaluated using the sum of the AUC (Area Under the Curve) difference.
# Briefly, combination treatment effect was calculated as the AUC normalized to the single agent effect of the ATR inhibitor compound. Total synergy or antagonism was calculated as the difference between the normalized combination AUC and the genotoxin single agent AUC. As before, the synergy score was normalized by dividing the total synergy score by the total number of regimens used.
Compound,synergy when combined with cisplatin,synergy when combined with gemcitabine
Nc1nn2cc(F)cnc2c1C(=O)Nc1cncc(F)c1N1CCC(C(=O)N2CCN(C3COC3)CC2)CC1 [I-G-32],synergistic,synergistic
CNCc1ccc(-c2cc(-c3nc(-c4ccc(S(=O)(=O)C(C)C)cc4)cnc3N)on2)cc1 [IIA-7],synergistic,synergistic
